Laboratory results as given in a compilation of properties of binary mixtures (doi:10.1021/acs.jced.0c00426).

Experiment: xn = mol fraction of the nth substance listed
Details: 101.3 kPa

CNc1ccccc1 + CCCCCC[n+]1ccn(C)c1.F[B-](F)(F)F
speed of sound [m/s]
Details	x2 = 0	x2 = 0.1058	x2 = 0.2201	x2 = 0.3079	x2 = 0.395	x2 = 0.501	x2 = 0.6034	x2 = 0.7024	x2 = 0.804	x2 = 0.8984
293.15 K	1584	–	1589	1580	1569	1557	–	1538	1531	1526
298.15 K	1565	1578	1577	1569	–	1549	1539	1532	1526	1523
303.15 K	1546	–	1560	1554	1545	1535	–	1519	1513	1510
308.15 K	–	1545	1544	–	–	–	1512	1505	1501	1497
313.15 K	1508	1527	1528	1523	1516	1507	1499	1493	1488	–
318.15 K	1489	–	1511	1507	1501	–	1486	1480	1476	1472
323.15 K	–	1490	1495	1492	1486	1479	1473	1467	1464	1460

CCCCCCCCn1cc[n+](C)c1.F[B-](F)(F)F + CNc1ccccc1
speed of sound [m/s]
Details	x1 = 0.1032	x1 = 0.2037	x1 = 0.285	x1 = 0.383	x1 = 0.4978	x1 = 0.5939	x1 = 0.7016	x1 = 0.7942	x1 = 0.9002	x1 = 1
293.15 K	1582	1571	–	1549	1536	1526	–	1509	1502	1499
298.15 K	–	1555	1545	1533	1521	1512	1502	1495	1488	1485
303.15 K	1548	1538	1529	1518	1507	1499	1489	–	1475	1472
308.15 K	1531	1522	1513	1503	–	–	–	1469	1462	–
313.15 K	1514	–	1498	1489	1479	–	1463	1456	1450	1446
318.15 K	1496	1491	1483	–	1465	1458	1451	1444	1438	1433
323.15 K	1479	–	1468	1460	1451	1444	–	1431	1426	1421

CCCC[n+]1ccn(C)c1.F[B-](F)(F)F + CNc1ccccc1
x1 = 1
Details	speed of sound [m/s]
303.15 K	1555
313.15 K	1532
318.15 K	1521
323.15 K	1511
